# US10064867B2, “Hsp90 inhibitors” (Sloan-Kettering Institute for Cancer Research, priority 2011, dated 2018)
# Read-outs that look alike come from different tables or passages of the source.
# Tests used:
# hERG = hERG (Homo sapiens, UniProt Q12809); assay: hERG binding
# Description: In interpreting these test results, it will be appreciated that binding to Hsp90 for activity in the treatment of cancer or neurodegenerative disorders is desirable. In contrast, it is generally undesirable to have binding to hERG since binding to hERG can result in undesirable cardiac side effects. Therefore, having a low value for binding to Hsp90 and a high value for binding to hERG is desirable, bearing in mind that the units for the two measurement are different.
# Hsp90 = Hsp90 Binding Assay (fluorescence polarization, cy3B-GM displacement, SKBr3 lysate); set-up: species or system human; details: read-out: SKBr3 Binding Affinity
# [1] = human cancer cell lysate (SKBr3), cy3B-GM displacement, 4° C., 24 h
# Sequence of hERG (Q12809 whole entry): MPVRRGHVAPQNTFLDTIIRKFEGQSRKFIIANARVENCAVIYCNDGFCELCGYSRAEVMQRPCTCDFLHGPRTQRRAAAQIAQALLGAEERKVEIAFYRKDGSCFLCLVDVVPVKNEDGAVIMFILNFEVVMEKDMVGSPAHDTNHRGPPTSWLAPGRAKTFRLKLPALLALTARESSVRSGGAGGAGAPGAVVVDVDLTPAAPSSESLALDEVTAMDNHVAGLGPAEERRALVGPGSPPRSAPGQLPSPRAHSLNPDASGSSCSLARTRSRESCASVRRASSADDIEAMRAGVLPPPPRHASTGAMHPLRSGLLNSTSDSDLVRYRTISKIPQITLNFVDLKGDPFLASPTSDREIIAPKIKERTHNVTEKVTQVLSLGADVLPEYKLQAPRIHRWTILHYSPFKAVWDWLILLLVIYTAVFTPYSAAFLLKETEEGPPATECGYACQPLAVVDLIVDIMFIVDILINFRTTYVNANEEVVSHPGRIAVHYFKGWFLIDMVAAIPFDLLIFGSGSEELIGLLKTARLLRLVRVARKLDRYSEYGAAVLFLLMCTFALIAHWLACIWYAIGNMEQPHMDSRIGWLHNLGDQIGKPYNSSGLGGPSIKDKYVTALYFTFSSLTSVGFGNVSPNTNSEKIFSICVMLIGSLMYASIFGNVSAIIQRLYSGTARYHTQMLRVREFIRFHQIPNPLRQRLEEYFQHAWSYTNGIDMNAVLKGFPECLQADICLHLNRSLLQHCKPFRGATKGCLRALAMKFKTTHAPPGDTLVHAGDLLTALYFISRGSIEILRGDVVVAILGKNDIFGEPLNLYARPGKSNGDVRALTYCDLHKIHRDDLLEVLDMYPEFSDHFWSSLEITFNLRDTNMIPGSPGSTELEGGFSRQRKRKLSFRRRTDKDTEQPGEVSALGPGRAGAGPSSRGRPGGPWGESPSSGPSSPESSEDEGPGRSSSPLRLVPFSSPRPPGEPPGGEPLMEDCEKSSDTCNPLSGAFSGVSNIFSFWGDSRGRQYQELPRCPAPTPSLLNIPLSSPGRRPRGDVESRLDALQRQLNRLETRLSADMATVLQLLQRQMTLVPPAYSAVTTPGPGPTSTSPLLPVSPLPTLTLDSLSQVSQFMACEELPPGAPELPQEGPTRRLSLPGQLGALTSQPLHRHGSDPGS
IC50 (Hsp90; [1]) [nM],Compound,hERG binding (hERG) [µM],IC50 (Hsp90) [nM]
55.3,"CC(C)NCCCn1c(Sc2cc3c(cc2N(C)C)OCO3)nc2c(N)ncnc21 [DZ4-134, 8-(6-(Dimethylamino)benzo[d][1,3]dioxol-5-ylthio)-9-(3-(isopropylamine)propyl)-9H-purin-6-amine]",11.0,
45.4,"CN(C)c1cc2c(cc1Sc1nc3c(N)ncnc3n1CCCNC(C)(C)C)OCO2 [DZ4-135, 9-(3-(tert-Butylamino)propyl)-8-(6-(dimethylamino)benzo[d][1,3]dioxol-5-ylthio)-9H-purin-6-amine]",14.0,
,"CC(C)NCCCn1c(Sc2cc3c(cc2I)OCO3)nc2c(N)ncnc21 [PU-H71, reference compound]",1,[…]
